Experimental data reported in ChEMBL document CHEMBL5291721, “A preclinical secondary pharmacology resource illuminates target-adverse drug reaction associations of marketed drugs” (Nat Commun, 2023).

Key:
Progesterone receptor = molecular target: T1, Progesterone receptor (Homo sapiens, UniProt P06401); type: functional
T1 sequence (P06401 whole entry): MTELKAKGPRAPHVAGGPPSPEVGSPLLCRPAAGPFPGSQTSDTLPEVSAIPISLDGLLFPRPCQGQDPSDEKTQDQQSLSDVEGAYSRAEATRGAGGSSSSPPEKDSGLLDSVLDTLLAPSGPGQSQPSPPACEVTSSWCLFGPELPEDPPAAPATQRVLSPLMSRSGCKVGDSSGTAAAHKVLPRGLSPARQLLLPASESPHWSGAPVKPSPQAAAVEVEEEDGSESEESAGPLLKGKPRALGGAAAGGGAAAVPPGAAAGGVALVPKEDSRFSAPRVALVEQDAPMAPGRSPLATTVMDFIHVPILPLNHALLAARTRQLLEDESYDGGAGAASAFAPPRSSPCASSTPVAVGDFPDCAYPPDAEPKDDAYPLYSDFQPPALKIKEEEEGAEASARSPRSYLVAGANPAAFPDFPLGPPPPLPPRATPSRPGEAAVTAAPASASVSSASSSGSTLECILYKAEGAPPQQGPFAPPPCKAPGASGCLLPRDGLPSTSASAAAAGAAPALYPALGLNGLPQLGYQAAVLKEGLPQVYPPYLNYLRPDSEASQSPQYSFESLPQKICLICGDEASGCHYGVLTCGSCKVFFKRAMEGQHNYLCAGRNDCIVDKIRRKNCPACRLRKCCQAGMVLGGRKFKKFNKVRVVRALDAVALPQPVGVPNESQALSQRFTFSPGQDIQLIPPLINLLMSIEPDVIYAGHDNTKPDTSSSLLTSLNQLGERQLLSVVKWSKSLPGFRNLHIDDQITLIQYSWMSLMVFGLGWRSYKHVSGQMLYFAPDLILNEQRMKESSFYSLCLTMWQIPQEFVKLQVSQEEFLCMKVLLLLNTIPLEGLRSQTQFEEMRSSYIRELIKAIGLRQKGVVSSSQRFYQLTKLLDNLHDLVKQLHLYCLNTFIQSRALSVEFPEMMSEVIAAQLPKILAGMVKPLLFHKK

Adenosine receptor A3 = molecular target: T2, Adenosine receptor A3 (Homo sapiens, UniProt P0DMS8)
T2 sequence (P0DMS8 whole entry): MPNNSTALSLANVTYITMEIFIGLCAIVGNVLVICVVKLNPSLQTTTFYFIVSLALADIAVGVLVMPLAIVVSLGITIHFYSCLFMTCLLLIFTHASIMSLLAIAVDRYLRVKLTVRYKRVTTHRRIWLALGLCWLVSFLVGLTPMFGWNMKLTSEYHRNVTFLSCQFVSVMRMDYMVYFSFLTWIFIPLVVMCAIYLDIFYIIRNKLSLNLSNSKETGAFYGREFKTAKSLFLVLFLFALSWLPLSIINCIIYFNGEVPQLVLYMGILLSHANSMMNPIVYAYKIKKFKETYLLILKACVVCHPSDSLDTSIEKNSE

[1] = molecular target: Sodium-dependent dopamine transporter (Homo sapiens, UniProt Q01959)
Chain of Sodium-dependent dopamine transporter (Q01959 whole entry): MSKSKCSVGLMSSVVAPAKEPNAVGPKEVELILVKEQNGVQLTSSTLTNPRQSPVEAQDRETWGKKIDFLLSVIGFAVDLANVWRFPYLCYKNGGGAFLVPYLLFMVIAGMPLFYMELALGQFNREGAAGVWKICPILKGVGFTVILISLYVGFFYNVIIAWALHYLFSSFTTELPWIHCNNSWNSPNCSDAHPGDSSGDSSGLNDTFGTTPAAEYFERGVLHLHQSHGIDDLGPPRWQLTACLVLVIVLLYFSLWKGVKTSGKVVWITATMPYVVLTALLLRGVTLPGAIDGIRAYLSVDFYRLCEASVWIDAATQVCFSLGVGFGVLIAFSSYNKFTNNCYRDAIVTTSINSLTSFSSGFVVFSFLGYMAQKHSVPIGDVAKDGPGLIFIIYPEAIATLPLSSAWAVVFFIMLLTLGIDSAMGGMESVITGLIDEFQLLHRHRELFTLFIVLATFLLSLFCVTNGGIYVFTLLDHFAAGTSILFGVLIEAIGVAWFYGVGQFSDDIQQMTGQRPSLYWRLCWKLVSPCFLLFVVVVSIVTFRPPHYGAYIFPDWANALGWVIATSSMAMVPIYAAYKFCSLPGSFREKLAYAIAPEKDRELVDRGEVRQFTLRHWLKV

[2] = molecular target: T3, 5-hydroxytryptamine receptor 3A (Homo sapiens, UniProt P46098); type: functional
T3 sequence (P46098 whole entry): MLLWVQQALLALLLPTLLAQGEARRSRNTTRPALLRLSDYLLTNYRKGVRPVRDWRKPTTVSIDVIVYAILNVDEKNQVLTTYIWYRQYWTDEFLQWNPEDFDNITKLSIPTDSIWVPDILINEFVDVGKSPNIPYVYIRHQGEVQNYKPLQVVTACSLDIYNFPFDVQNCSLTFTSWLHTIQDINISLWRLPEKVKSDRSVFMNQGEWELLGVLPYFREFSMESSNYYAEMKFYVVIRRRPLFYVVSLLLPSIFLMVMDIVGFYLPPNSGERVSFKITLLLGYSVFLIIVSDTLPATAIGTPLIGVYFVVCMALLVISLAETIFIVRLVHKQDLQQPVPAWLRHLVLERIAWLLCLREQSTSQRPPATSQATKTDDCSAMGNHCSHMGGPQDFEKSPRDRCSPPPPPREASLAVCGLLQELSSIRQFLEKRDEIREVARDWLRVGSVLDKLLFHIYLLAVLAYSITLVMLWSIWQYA

[3] = molecular target: T4, Alpha-2B adrenergic receptor (Homo sapiens, UniProt P18089)
T4 sequence (P18089 whole entry): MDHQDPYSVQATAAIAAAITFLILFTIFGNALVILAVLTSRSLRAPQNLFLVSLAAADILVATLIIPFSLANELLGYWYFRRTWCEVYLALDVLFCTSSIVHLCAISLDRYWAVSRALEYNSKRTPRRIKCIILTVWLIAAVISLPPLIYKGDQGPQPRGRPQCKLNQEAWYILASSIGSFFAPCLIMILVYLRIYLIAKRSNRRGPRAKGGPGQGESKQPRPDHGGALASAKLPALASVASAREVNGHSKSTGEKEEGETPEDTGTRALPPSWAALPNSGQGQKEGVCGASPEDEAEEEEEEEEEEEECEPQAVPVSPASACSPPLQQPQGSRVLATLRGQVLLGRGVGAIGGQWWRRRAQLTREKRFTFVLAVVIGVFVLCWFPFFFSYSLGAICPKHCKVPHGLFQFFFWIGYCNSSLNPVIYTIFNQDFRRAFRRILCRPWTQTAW

[4] = molecular target: Growth hormone secretagogue receptor type 1 (Homo sapiens, UniProt Q92847)
Chain of Growth hormone secretagogue receptor type 1 (Q92847 whole entry): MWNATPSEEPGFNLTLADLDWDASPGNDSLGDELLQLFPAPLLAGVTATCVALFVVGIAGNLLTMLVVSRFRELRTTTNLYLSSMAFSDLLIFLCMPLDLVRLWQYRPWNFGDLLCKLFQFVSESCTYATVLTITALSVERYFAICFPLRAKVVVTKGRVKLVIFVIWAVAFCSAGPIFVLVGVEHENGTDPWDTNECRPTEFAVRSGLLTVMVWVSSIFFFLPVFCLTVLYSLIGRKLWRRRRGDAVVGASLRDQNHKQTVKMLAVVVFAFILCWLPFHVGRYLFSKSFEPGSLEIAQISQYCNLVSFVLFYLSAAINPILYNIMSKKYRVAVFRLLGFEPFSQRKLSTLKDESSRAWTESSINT

[5] = molecular target: T5, Type-1 angiotensin II receptor (Homo sapiens, UniProt P30556)
T5 sequence (P30556 whole entry): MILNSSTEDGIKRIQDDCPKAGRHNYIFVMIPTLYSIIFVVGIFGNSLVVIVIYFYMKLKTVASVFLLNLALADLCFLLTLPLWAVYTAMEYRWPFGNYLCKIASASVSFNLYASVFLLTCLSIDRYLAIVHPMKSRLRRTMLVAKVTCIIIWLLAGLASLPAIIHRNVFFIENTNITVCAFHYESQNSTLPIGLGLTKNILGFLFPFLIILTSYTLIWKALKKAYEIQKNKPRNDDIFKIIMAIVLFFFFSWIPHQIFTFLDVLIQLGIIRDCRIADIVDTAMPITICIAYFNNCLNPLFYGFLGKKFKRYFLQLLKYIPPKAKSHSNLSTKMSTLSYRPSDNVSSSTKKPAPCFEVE

Histamine H2 receptor = Histamine H2 receptor (Homo sapiens, UniProt P25021); type: functional, cell-based
Chain of Histamine H2 receptor (P25021 whole entry): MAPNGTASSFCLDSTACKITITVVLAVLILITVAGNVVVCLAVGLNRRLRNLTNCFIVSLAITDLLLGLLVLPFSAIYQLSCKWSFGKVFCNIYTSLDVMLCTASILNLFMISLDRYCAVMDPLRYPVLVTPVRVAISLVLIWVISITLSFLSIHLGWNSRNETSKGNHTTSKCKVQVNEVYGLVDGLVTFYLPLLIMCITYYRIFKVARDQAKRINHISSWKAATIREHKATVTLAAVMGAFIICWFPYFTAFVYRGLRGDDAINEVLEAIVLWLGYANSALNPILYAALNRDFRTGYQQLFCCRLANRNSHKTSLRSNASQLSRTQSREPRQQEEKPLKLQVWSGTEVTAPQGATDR

[6] = molecular target: Muscarinic acetylcholine receptor M3 (Homo sapiens, UniProt P20309)
Chain of Muscarinic acetylcholine receptor M3 (P20309 whole entry): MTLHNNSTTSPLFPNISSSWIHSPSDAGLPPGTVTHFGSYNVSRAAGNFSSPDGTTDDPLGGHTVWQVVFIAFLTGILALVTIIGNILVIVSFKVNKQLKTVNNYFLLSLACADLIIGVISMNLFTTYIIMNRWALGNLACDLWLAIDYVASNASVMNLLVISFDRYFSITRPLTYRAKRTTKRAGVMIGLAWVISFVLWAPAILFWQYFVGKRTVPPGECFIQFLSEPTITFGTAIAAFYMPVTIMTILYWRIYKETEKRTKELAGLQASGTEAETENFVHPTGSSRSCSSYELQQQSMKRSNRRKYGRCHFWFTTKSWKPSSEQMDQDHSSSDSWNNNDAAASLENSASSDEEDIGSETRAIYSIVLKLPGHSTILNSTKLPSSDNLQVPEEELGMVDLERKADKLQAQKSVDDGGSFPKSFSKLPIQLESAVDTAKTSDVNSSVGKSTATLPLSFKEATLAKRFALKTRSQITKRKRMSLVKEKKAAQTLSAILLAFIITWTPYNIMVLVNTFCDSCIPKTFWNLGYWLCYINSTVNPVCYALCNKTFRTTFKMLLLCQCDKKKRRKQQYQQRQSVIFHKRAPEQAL
Further: assay procedure not described here.

Compound | AC50 (Progesterone receptor) [µM] | AC50 (Adenosine receptor A3) [µM] | AC50 [1] [µM] | AC50 [2] [µM] | AC50 [3] [µM] | AC50 [4] [µM] | AC50 [5] [µM] | AC50 (Histamine H2 receptor) [µM] | AC50 [6] [µM]
CC(C(=O)O)c1ccc(N2Cc3ccccc3C2=O)cc1 (stereo unspecified) [INDOPROFEN] | > 30 | > 30 | > 30 | > 30 | > 30 | > 30 | > 30 | > 30 | > 30
O=C(O)CCCCCCCC(=O)O [AZELAIC ACID] | > 10 | > 10 | > 10 | > 30 | > 10 | > 10 | > 10 | > 30 | > 30
C[C@H](N)[C@H](O)c1cccc(O)c1 [METARAMINOL] | > 10 | > 10 | > 10 | > 30 | > 10 | > 10 | > 10 | > 30 | > 30
Cc1ccc(-n2nccn2)c(C(=O)N2CCN(c3nc4cc(Cl)ccc4o3)CC[C@H]2C)c1 [SUVOREXANT] | > 30 | > 10 | > 10 | > 30 | 26 | > 30 | > 30 | > 30 | > 30
